Experimental data as given in patent US4820701A, “Penam derivatives” (Beecham Group p.l.c., priority 1987, dated 1989).
Values after ≈ are worked out from the molar mass of the structure shown. Counter-ions that a name gives are not always drawn.

Assays:
Experiment in all cases: MIC by serial dilution in agar
Assay type in all cases: cell-based
P. aeruginosa K79961 = settings: Pseudomonas aeruginosa, Iso-sensitest Agar, 10^4 colony forming units, overnight at 37° C
Method: (§1) Minimum Inhibitory concentration (MIC) values of compounds of the invention against E. coli JT425 and DC RTEM, K. Pneumoniae T767 and P. aeruginosa 10662 and K79961. were determined by serial dilution in Iso-sensitest Agar (from Oxoid Ltd., Basingstoke, England). The plates were inoculated with 10^4 colony forming units and incubated overnight at 37° C. The MIC values recorded in Table 1 were the lowest concentration of antibiotic to inhibit growth. Comparative data for Piperacillin which is the compound 6β-[D-2-[(4-ethyl-2,3-dioxopiperazin-1-yl)carbonylamino]-2-phenylacetamido]-penicillanic acid, sodium salt and for the compound 6α-formamido-6β-[D-2-[(4-ethyl-2,3-dioxopiperazin-1-yl)carbonylamino]-2-phenylacetamido]-penicillanic acid, sodium salt (Compound A) disclosed in U.K. GB Pat. No.-2107307B, are also given.

E. coli DC RTEM = settings: Escherichia coli
Method: as §1

P. aeruginosa 10662 = settings: Pseudomonas aeruginosa, Iso-sensitest Agar, 10^4 colony forming units, overnight at 37° C
Method: as §1

K. pneumoniae T767 = settings: Klebsiella pneumoniae, Iso-sensitest Agar, 10^4 colony forming units, overnight at 37° C
Method: as §1

E. coli JT 425 = settings: Escherichia coli, JT425; Iso-sensitest Agar, 10^4 colony forming units, overnight at 37° C
Method: as §1

Row | SMILES | MIC (P. aeruginosa K79961) [mg/L] | MIC (E. coli DC RTEM) [mg/L] | MIC (P. aeruginosa 10662) [mg/L] | MIC (K. pneumoniae T767) [mg/L] | MIC (E. coli JT 425) [mg/L]
1 | CCN1CCN(C(=O)N[C@@H](C(=O)N[C@]2(NC=O)C(=O)N3[C@@H](C(=O)O)C(C)(C)S[C@@H]32)c2ccccc2)C(=O)C1=O [Compound A, 6α-formamido-6β-[D-2-[(4-ethyl-2,3-dioxopiperazin-1-yl)carbonylamino]-2-phenylacetamido]-penicillanic acid, sodium salt, reference compound] | 2 | 4 | 16 | 4 | 8
2 | CCN1CCN(C(=O)N[C@@H](C(=O)N[C@]2(NC=O)C(=O)N3[C@@H](C(=O)O)[C@](C)(COC(=O)c4ccc(OC(C)=O)c(OC(C)=O)c4)S[C@@H]32)c2ccccc2)C(=O)C1=O [Example 1] | 0.06 (≈ 0.0753 µM) | 0.12 (≈ 0.151 µM) | 0.25 (≈ 0.314 µM) | 0.12 (≈ 0.151 µM) | 0.5 (≈ 0.628 µM)
3 | CCN1CCN(C(=O)N[C@@H](C(=O)N[C@]2(NC=O)C(=O)N3[C@@H](C(=O)O)[C@](C)(COC(=O)c4ccc(O)c(O)c4)S[C@@H]32)c2ccccc2)C(=O)C1=O [Example 2, Sodium 6β-[R,2-(4-ethyl-2,3-dioxopiperazin-1-yl)carbonylamino-2-phenylacetamido]-6α-formamido-2β-(3,4-dihydroxybenzoyloxy)methyl-2α-methylpenam-3-carboxylate] | < 0.03 | < 0.03 | 0.12 | 0.12 | 0.5
4 | CCN1CCN(C(=O)N[C@@H](C(=O)N[C@@H]2C(=O)N3[C@@H]2S[C@@](C)(COC(=O)c2ccc(OC(C)=O)c(OC(C)=O)c2)[C@@H]3C(=O)O)c2ccccc2)C(=O)C1=O [Example 3, Sodium 2β-(3,4-diacetoxybenzoyloxy)methyl-6β-[R,2-(4-ethyl-2,3-dioxopiperazin-1-yl)carbonylamino-2-phenylacetamido]-2α-methylpenam-3-carboxylate] | < 0.03 | 4 | < 0.03 | 0.25 | 1
5 | CCN1CCN(C(=O)N[C@@H](C(=O)N[C@@H]2C(=O)N3[C@@H]2SC(C)(C)[C@@H]3C(=O)O)c2ccccc2)C(=O)C1=O [Piperacillin, 6β-[D-2-[(4-ethyl-2,3-dioxopiperazin-1-yl)carbonylamino]-2-phenylacetamido]-penicillanic acid, sodium salt, reference compound] | > 0.06 | > 128 | 2 | 2 | 16
